Values joined by “and” are separate entries in the source; they are usually repeats but may differ in a detail not shown here. Equal entries are not always repeated. Where two headings read alike, the source gives them in different places.
System: Klebsiella isolates
Assay: Acoustic flow cytometry-assisted susceptibility test (FAST), MICFAST and S/NS, Klebsiella isolates
Assay type: cell-based, Klebsiella pneumoniae, Klebsiella oxytoca
Experimental: A 1 mL aliquot of bacterial suspension was centrifuged, washed and resuspended in 1 mL filtered Hank's Buffered Salt Solution (HBSS; comprising about 0.137 M NaCl, about 5.4 mM KCl, about 0.25 mM Na2HPO4, about 0.1 g Glucose, about 0.44 mM KH2PO4, 1.3 mM CaCl2), 1.0 mM MgSO4, about 1.3 mM CaCl2), 1.0 mM MgSO4, and about 4.2 mM NaHCO3) and diluted in series (e.g., in a 1:10 serial dilution) to a final 1:1000 dilution.
One μL (microliter) of SYTO 9 stain (e.g., ThermoFisher Scientific) working stock solution was added to the final dilution at a final concentration of 5 μM and incubated for 5 minutes before counting bacterial events by acoustic flow cytometer (AFC) (Attune, ThermoFisher, Eugene, Oreg., USA), which was used to prepare a standardised inoculum density for susceptibility testing.
An aliquot of bacterial suspension was added to 50 mL centrifuge tubes (Corning, N.Y.) containing 9 mL of pre-warmed (37° C.) filtered MHB to produce a final density of 5×10^5-1×10^6 bacteria per mL. This suspension was incubated at 37° C. with shaking at 100 RPM for 30 minutes to obtain an actively dividing culture. An aliquot of antibiotic working solution from the previously described dilution series (appropriate to the concentration tested) was then added to each tube before a further 30-minute incubation with shaking, during which time a microbroth dilution (MBD) plate was prepared for overnight incubation at 37° C. as previously described in Clinical and Laboratory Standards Institute (2015) Performance Standards for Antimicrobial Susceptibility Testing: Informational Supplement. CLSI document M100-S25. Clinical and Laboratory Standards Institute, 950, West Valley Road, Suite 2500, Wayne, Pa., 19087, USA.
One millilitre of bacterial suspension from each antibiotic concentration was harvested by centrifugation at 7800×g for 5 minutes, washed and diluted 1:10 in filtered HBSS in a light-impermeable microcentrifuge tube, then stained with SYTO 9 stain at a final concentration of 5 μM, and incubated for 5 min before AFC sampling. Hoechst 33342 dye (NucBlue, Thermo Fisher Scientific, Eugene, Oreg., USA) and a SYTO 9/propidium iodide (PI) combination (Thermo Fisher Scientific) were used in a series of replicate experiments.
The acoustic flow cytometer employed was Attune acoustic flow cytometer (Thermo Fisher Scientific), having installed therein a 488 nm blue laser with a 530/30 nm filter on the photomultiplier tube for measuring fluorescence of cells assayed. Alternatively, the Attune NxT acoustic flow cytometer (Thermo Fisher Scientific) can be employed. AFC was calibrated at the beginning of each acquisition session using fluorescently labelled size calibration beads, in accordance with the manufacturer's instructions (ThermoFisher Scientific). The AFC settings were as follows: Forward Scatter (FSC) voltage 3100, FSC threshold 4×1000 AND, blue laser 1 (BL1—530/30 nm) voltage 1900, BL1 threshold 1×1000 AND, high sensitivity, flow rate 25 μL/minute, and an acquisition volume of 125 μL. Acquisition was halted after either collection of 20,000 events across all gates, or after 3 minutes, with each sample acquired in technical triplicate.
Collected data was exported in the FCS 3.0 file format and analysed in Flow v10.0 (FlowJo LLC, Ashland, Oreg., USA) by a single user, blinded to the MIC results by BMD (MICBMD).
Subsequent to quantitative MICFAST determination, the acoustic flow cytometer data were re-analysed in silico to produce a limited sub-set for qualitative susceptibility determination. The six antibiotic dilutions (0 mg/L, 0.25 mg/L, 1 mg/L, 2 mg/L, 4 mg/L and 16 mg/L) most relevant to qualitative susceptibility assessment were used. In silico analysis was restricted to the first technical triplicate of each recorded sample. Gating strategies remained consistent, with the addition of a gate restricting analysis to only those events recorded in the first 60 seconds of acquisition.

[1] = K. pneumoniae isolate 18397, biological replicates
[2] = K. pneumoniae isolate 43292, biological replicates
[3] = K. pneumoniae isolate 43358, biological replicates
[4] = K. pneumoniae isolate 44271, biological replicates
[5] = K. pneumoniae isolate ATCC 700603, biological replicates
[6] = K. pneumoniae isolate ATCC BAA1705, biological replicates
[7] = K. pneumoniae isolate K1, biological replicates
[8] = K. pneumoniae isolate K14, biological replicates
[9] = K. pneumoniae isolate KS11, biological replicates

For `C[C@@H](O)[C@H]1C(=O)N2C(C(=O)O)=C(S[C@@H]3CN[C@H](C(=O)N(C)C)C3)[C@H](C)[C@H]12` [meropenem], which MICFAST (K. pneumoniae ATCC 700603 (carbapenem susceptible control), limited clinical screen concentrations) is on record?
Its MICFAST is no more than 0.25.

What about the MICFAST (K. pneumoniae ATCC BAA1705 (carbapenem resistant control), limited clinical screen concentrations) of the same compound?
Its MICFAST is greater than 16.

And the “FAST S/NS” value [1]?
Its value is “S (S: MIC ≤2 mg/L)”.

What about the MICFAST [1] of the same compound?
The MICFAST was no more than 0.25 mg/L.

What about the “FAST S/NS” value [2] of the same compound?
The value was “S (S: MIC ≤2 mg/L)”.

And the MICFAST [2]?
Its MICFAST is no more than 0.25 mg/L.

What about the “FAST S/NS” value [3] of the same compound?
The value was “S (S: MIC ≤2 mg/L)”.

And the MICFAST [3]?
Its MICFAST is no more than 0.25 mg/L.

And the “FAST S/NS” value [4]?
Its value is “S (S: MIC ≤2 mg/L)”.

And the MICFAST [4]?
The MICFAST was 0.5 mg/L.

And the “FAST S/NS” value [5]?
Its value is “S (S: MIC ≤2 mg/L)”.

What about the MICFAST [5] of the same compound?
Its MICFAST is no more than 0.25 mg/L.

What about the “FAST S/NS” value [6] of the same compound?
Its value is “NS (NS: MIC >2 mg/L)”.

And the MICFAST [6]?
Its MICFAST is 8 mg/L.

And the “FAST S/NS” value [7]?
The value was “NS (NS: MIC >2 mg/L)”.

And the MICFAST [7]?
The MICFAST was 64 mg/L (2×) and 32 mg/L.

What about the “FAST S/NS” value [8] of the same compound?
Its value is “NS (NS: MIC >2 mg/L)”.

What about the MICFAST [8] of the same compound?
The MICFAST was 256 mg/L.

What about the MICFAST (K. pneumoniae isolate K16 (IMP-4), rough colony variant) of the same compound?
Its MICFAST is 64 mg/L.

And the MICFAST (K. pneumoniae isolate K16 (IMP-4), smooth colony variant)?
The MICFAST was 2 mg/L.

And the MIC (K. pneumoniae isolate K16, subculture of Day 1 meropenem-exposed culture, read-out: MIC by FAST on Day 2)?
The MIC was 4 µg/mL.

What about the MICFAST (K. pneumoniae isolate KS1, biological replicates) of the same compound?
The MICFAST was 4 mg/L and 1 mg/L and 2 mg/L.

What about the “FAST S/NS” value [9] of the same compound?
Its value is “S (S: MIC ≤2 mg/L)”.

What about the MICFAST [9] of the same compound?
Its MICFAST is 1 mg/L (2×) and 2 mg/L.

What about the MIC (K. pneumoniae susceptible type strain ATCC 700603, read-out: isolate's MIC (new contouring focus formed, FIG. 3A)) of the same compound?
Its MIC is 0.25 µg/mL.

And the “susceptibility-associated signature by AFC bi-axial plot (FIG. 3B)” value (highly resistant clinical K. pneumoniae strain K8, clinically relevant meropenem concentrations)?
Its value is “absence of susceptibility-associated signature”.

And the “FAST S/NS” value (isolate 194, Sweden, VIM)?
Its value is “NS (NS = MIC >2 mg/L)”.

What about the MICFAST (isolate 194, Sweden, VIM) of the same compound?
Its MICFAST is 16 mg/L.

And the “FAST S/NS” value (isolate 374, Sweden, VIM)?
The value was “NS (NS = MIC >2 mg/L)”.

What about the MICFAST (isolate 374, Sweden, VIM) of the same compound?
Its MICFAST is 32 mg/L.

And the “FAST S/NS” value (isolate 3354, Australia)?
Its value is “S (S = MIC ≤2 mg/L)”.

What about the MICFAST (isolate 3354, Australia) of the same compound?
The MICFAST was 0.5 mg/L.

And the “FAST S/NS” value (isolate 10924, Sweden, KPC)?
Its value is “S (S = MIC ≤2 mg/L)”.

What about the MICFAST (isolate 10924, Sweden, KPC) of the same compound?
Its MICFAST is 0.5 mg/L.

What about the “FAST S/NS” value (isolate 18397, Australia) of the same compound?
Its value is “S (S = MIC ≤2 mg/L)”.

And the MICFAST (isolate 18397, Australia)?
The MICFAST was no more than 0.25 mg/L.

And the “FAST S/NS” value (isolate 43288, Australia)?
Its value is “S (S = MIC ≤2 mg/L)”.

And the MICFAST (isolate 43288, Australia)?
Its MICFAST is no more than 0.25 mg/L.

And the “FAST S/NS” value (isolate 43292, Australia)?
Its value is “S (S = MIC ≤2 mg/L)”.

And the MICFAST (isolate 43292, Australia)?
The MICFAST was no more than 0.25 mg/L.

And the “FAST S/NS” value (isolate 43358, Australia)?
Its value is “S (S = MIC ≤2 mg/L)”.

What about the MICFAST (isolate 43358, Australia) of the same compound?
The MICFAST was no more than 0.25 mg/L.

What about the “FAST S/NS” value (isolate 43854, Australia) of the same compound?
Its value is “S (S = MIC ≤2 mg/L)”.

And the MICFAST (isolate 43854, Australia)?
Its MICFAST is no more than 0.25 mg/L.

What about the “FAST S/NS” value (isolate 44271, Australia) of the same compound?
The value was “S (S = MIC ≤2 mg/L)”.

What about the MICFAST (isolate 44271, Australia) of the same compound?
Its MICFAST is 0.5 mg/L.

And the “FAST S/NS” value (isolate 51575, Sweden, ESBL)?
Its value is “S (S = MIC ≤2 mg/L)”.

And the MICFAST (isolate 51575, Sweden, ESBL)?
Its MICFAST is no more than 0.25 mg/L.

And the “FAST S/NS” value (isolate 70708, Sweden, KPC)?
Its value is “NS (NS = MIC >2 mg/L)”.

What about the MICFAST (isolate 70708, Sweden, KPC) of the same compound?
Its MICFAST is 32 mg/L.

And the “FAST S/NS” value (isolate 71076, Sweden, KPC)?
The value was “NS (NS = MIC >2 mg/L)”.

What about the MICFAST (isolate 71076, Sweden, KPC) of the same compound?
The MICFAST was 32 mg/L.

What about the “FAST S/NS” value (isolate 200822, Sweden, KPC) of the same compound?
Its value is “NS (NS = MIC >2 mg/L)”.

And the MICFAST (isolate 200822, Sweden, KPC)?
Its MICFAST is 8 mg/L.

What about the “FAST S/NS” value (isolate 270902, England) of the same compound?
Its value is “S (S = MIC ≤2 mg/L)”.

And the MICFAST (isolate 270902, England)?
The MICFAST was no more than 0.25 mg/L.

And the “FAST S/NS” value (isolate 500638, Sweden, pAmpC)?
Its value is “S (S = MIC ≤2 mg/L)”.

What about the MICFAST (isolate 500638, Sweden, pAmpC) of the same compound?
Its MICFAST is 2 mg/L.

And the “FAST S/NS” value (isolate 515870, Sweden, ESBL)?
The value was “S (S = MIC ≤2 mg/L)”.

And the MICFAST (isolate 515870, Sweden, ESBL)?
The MICFAST was no more than 0.25 mg/L.

From patent publication US20210292807A1, “METHOD FOR TESTING ANTIMICROBIAL SUSCEPTIBILITY” (priority 2017, published 2021)
